Experimental data: patent publication US20080119515A1, “Heterocyclic Kinase Inhibitors: Methods of Use and Synthesis” (priority 2003, published 2008)

What follows are molecules tested against T1, ZAP-70 (Homo sapiens, UniProt P43403) (assay: DELFIA assay (ZAP-70 kinase, phosphorylation of biotinylated poly(glu,tyr))). Settings: ZAP-70 DELFIA, class symbols; read-out: Activity (IC50 in vitro).
T1 sequence (P43403 1-619): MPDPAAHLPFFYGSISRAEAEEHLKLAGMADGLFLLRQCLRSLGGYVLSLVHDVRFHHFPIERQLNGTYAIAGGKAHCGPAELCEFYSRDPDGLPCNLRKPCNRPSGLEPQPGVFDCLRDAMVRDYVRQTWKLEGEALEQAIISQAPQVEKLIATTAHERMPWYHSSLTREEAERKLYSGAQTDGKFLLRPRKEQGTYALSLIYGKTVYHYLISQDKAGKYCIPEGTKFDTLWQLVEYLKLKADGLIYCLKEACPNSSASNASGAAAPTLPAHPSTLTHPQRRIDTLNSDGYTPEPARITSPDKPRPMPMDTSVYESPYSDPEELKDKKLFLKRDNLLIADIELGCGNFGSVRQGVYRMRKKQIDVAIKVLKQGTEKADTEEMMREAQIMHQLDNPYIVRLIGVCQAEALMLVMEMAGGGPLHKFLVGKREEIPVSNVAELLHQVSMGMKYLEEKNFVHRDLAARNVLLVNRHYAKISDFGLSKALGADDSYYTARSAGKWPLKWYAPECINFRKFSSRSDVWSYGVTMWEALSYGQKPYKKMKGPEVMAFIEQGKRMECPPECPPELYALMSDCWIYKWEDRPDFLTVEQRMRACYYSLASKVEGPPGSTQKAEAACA
Format: biochemical
Procedure, shortened: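 3.1 nM ZAP-70 pre-incubated 10 min at room temperature with compound ([…]) and 62.5 nM biotinylated poly(glu,tyr) in 62.5 mM Mops pH 7.0, 12.5 mM MgCl2, 12.5% glycerol, 6.25% DMSO (pre-incubation concentrations); ATP added from 5 mM stock, 30 min reaction, EDTA stop. Phosphorylation read by DELFIA europium anti-phosphotyrosine fluorescence (340/615).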

IC50 | SMILES
1 to 10 µM | O=C(c1cc(NCc2ccc(C(F)(F)F)cc2)nc2ccc(-c3cccs3)cc12)N1CCC[C@H]1CN1CCCC1 [Compound 293]
< 1 µM | O=C(c1cc(NCc2ccc(C(F)(F)F)cc2)nc2ccc(-c3ccsc3)cc12)N1CCC[C@H]1CN1CCCC1 [Compound 294]
1 to 10 µM | O=C(c1cc(NCc2ccc(C(F)(F)F)cc2)nc2ccc(-c3cccc(C(F)(F)F)c3)cc12)N1CCC[C@H]1CN1CCCC1 [Compound 295]
1 to 10 µM | O=C(c1cc(NCc2ccc(C(F)(F)F)cc2)nc2ccc(-c3ccc(C(F)(F)F)cc3)cc12)N1CCC[C@H]1CN1CCCC1 [Compound 296]
> 10 µM | CC(=O)Nc1cccc(-c2ccc3nc(NCc4ccc(C(F)(F)F)cc4)cc(C(=O)N4CCC[C@H]4CN4CCCC4)c3c2)c1 [Compound 297]
1 to 10 µM | O=C(c1cc(NCc2ccc(C(F)(F)F)cc2)nc2ccc(-c3cc4ccccc4s3)cc12)N1CCC[C@H]1CN1CCCC1 [Compound 298]
< 1 µM | CC(=O)c1ccc(-c2ccc3nc(NCc4ccc(C(F)(F)F)cc4)cc(C(=O)N4CCC[C@H]4CN4CCCC4)c3c2)s1 [Compound 299]
< 1 µM | O=C(c1cc(NCc2ccc(C(F)(F)F)cc2)nc2ccc(-c3csc4ccccc34)cc12)N1CCC[C@H]1CN1CCCC1 [Compound 300]
< 1 µM | O=C(c1cc(NCc2ccc(C(F)(F)F)cc2)nc2ccc(-c3ccc(F)cc3)cc12)N1CCC[C@H]1CN1CCCC1 [Compound 302]
< 1 µM | O=C(c1cc(NCc2ccc(C(F)(F)F)cc2)nc2ccc(-c3ccc(F)c(Cl)c3)cc12)N1CCC[C@H]1CN1CCCC1 [Compound 303]
1 to 10 µM | O=C(c1cc(NCc2ccc(C(F)(F)F)cc2)nc2ccc(-c3cccc(F)c3)cc12)N1CCC[C@H]1CN1CCCC1 [Compound 304]
< 1 µM | O=C(c1cc(NCc2ccc(C(F)(F)F)cc2)nc2ccc(-c3ccc(Cl)cc3)cc12)N1CCC[C@H]1CN1CCCC1 [Compound 305]
< 1 µM | O=C(c1cc(NCc2ccc(C(F)(F)F)cc2)nc2ccc(-c3cccc(Cl)c3)cc12)N1CCC[C@H]1CN1CCCC1 [Compound 306]
1 to 10 µM | O=C(c1cc(NCc2ccc(C(F)(F)F)cc2)nc2ccc(-c3ccc(F)cc3F)cc12)N1CCC[C@H]1CN1CCCC1 [Compound 307]
1 to 10 µM | O=C(c1cc(NCc2ccc(C(F)(F)F)cc2)nc2ccc(-c3ccccc3F)cc12)N1CCC[C@H]1CN1CCCC1 [Compound 308]
1 to 10 µM | O=C(c1cc(NCc2ccc(C(F)(F)F)cc2)nc2ccc(-c3ccc(OC(F)(F)F)cc3)cc12)N1CCC[C@H]1CN1CCCC1 [Compound 309]
< 1 µM | O=C(c1cc(NCc2ccc(C(F)(F)F)cc2)nc2ccc(-c3cccc(OC(F)(F)F)c3)cc12)N1CCC[C@H]1CN1CCCC1 [Compound 310]
1 to 10 µM | CS(=O)(=O)c1ccc(CNc2cc(C(=O)N3CCC[C@H]3CN3CCCC3)c3cc(-c4ccc(C#N)cc4)ccc3n2)cc1 [Compound 311]
1 to 10 µM | N#Cc1ccc(-c2ccc3nc(NCc4c(F)cccc4F)cc(C(=O)N4CCC[C@H]4CN4CCCC4)c3c2)cc1 [Compound 312]
1 to 10 µM | COc1ccccc1CCNc1cc(C(=O)N2CCC[C@H]2CN2CCCC2)c2cc(-c3ccc(C#N)cc3)ccc2n1 [Compound 313]
< 1 µM | N#Cc1ccc(-c2ccc3nc(NC(CO)Cc4ccccc4)cc(C(=O)N4CCC[C@H]4CN4CCCC4)c3c2)cc1 (some centres unmarked) [Compound 315]
1 to 10 µM | N#Cc1ccc(-c2ccc3nc(N[C@H](CO)Cc4ccccc4)cc(C(=O)N4CCC[C@H]4CN4CCCC4)c3c2)cc1 [Compound 316]
< 1 µM | C[C@H](Nc1cc(C(=O)N2CCC[C@H]2CN2CCCC2)c2cc(-c3ccc(C#N)cc3)ccc2n1)[C@H](O)c1ccccc1 [Compound 317]
1 to 10 µM | N#Cc1ccc(-c2ccc3nc(NCc4ccc5c(c4)CCO5)cc(C(=O)N4CCC[C@H]4CN4CCCC4)c3c2)cc1 [Compound 318]
< 1 µM | N#Cc1ccc(-c2ccc3nc(NCc4cccc(OC(F)F)c4)cc(C(=O)N4CCC[C@H]4CN4CCCC4)c3c2)cc1 [Compound 319]
1 to 10 µM | N#Cc1ccc(-c2ccc3nc(NCCc4cccc(O)c4)cc(C(=O)N4CCC[C@H]4CN4CCCC4)c3c2)cc1 [Compound 320]
1 to 10 µM | N#Cc1ccc(-c2ccc3nc(NCc4cccc(O)c4)cc(C(=O)N4CCC[C@H]4CN4CCCC4)c3c2)cc1 [Compound 321]
> 10 µM | O=C(c1cc(Sc2ccc(C(F)(F)F)cc2)nc2ccc(-c3ccc4c(c3)OCO4)cc12)N1CCC[C@H]1CN1CCCC1 [Compound 323]

IC50 | SMILES
< 1 µM | O=C(c1cc(Sc2cccc(C(F)(F)F)c2)nc2ccc(-c3ccc4c(c3)OCO4)cc12)N1CCC[C@H]1CN1CCCC1 [Compound 324]
< 1 µM | O=C(c1cc(Sc2ccc(OC(F)(F)F)cc2)nc2ccc(-c3ccc4c(c3)OCO4)cc12)N1CCC[C@H]1CN1CCCC1 [Compound 325]
< 1 µM | O=C(c1cc(SCc2ccc(Cl)cc2)nc2ccc(-c3ccc4c(c3)OCO4)cc12)N1CCC[C@H]1CN1CCCC1 [Compound 326]
> 10 µM | O=C(c1cc(N2CCC[C@H]2CO)nc2ccc(-c3ccc4c(c3)OCO4)cc12)N1CCC[C@H]1CN1CCCC1 [Compound 327]
1 to 10 µM | COC[C@H]1CCCN1c1cc(C(=O)N2CCC[C@H]2CN2CCCC2)c2cc(-c3ccc4c(c3)OCO4)ccc2n1 [Compound 328]
> 10 µM | COC[C@@H]1CCCN1c1cc(C(=O)N2CCC[C@H]2CN2CCCC2)c2cc(-c3ccc4c(c3)OCO4)ccc2n1 [Compound 329]
< 1 µM | C[C@@H](Nc1cc(C(=O)N2CCC[C@H]2CN2CCCC2)c2cc(-c3ccc4c(c3)OCO4)ccc2n1)c1ccc(Cl)cc1 [Compound 330]
< 1 µM | C[C@H](Nc1cc(C(=O)N2CCC[C@H]2CN2CCCC2)c2cc(-c3ccc4c(c3)OCO4)ccc2n1)c1ccc(Cl)cc1 [Compound 331]
> 10 µM | O=C(c1cc(NCc2ccc(C(F)(F)F)cc2)nc2ccc(-c3cncnc3)cc12)N1CCC[C@H]1CN1CCCC1 [Compound 332]
> 10 µM | O=C(c1cc(NCc2ccc(C(F)(F)F)cc2)nc2ccc(-c3ccccn3)cc12)N1CCC[C@H]1CN1CCCC1 [Compound 333]
> 10 µM | O=C(c1cc(NCc2ccc(C(F)(F)F)cc2)nc2ccc(-c3cccnc3)cc12)N1CCC[C@H]1CN1CCCC1 [Compound 334]
> 10 µM | O=C(c1cc(NCc2ccc(C(F)(F)F)cc2)nc2ccc(-c3cncc4ccccc34)cc12)N1CCC[C@H]1CN1CCCC1 [Compound 335]
> 10 µM | O=C(c1cc(NCc2ccc(C(F)(F)F)cc2)nc2ccc(-c3ncccn3)cc12)N1CCC[C@H]1CN1CCCC1 [Compound 336]
> 10 µM | Cc1ccsc1-c1ccc2nc(NCc3ccc(C(F)(F)F)cc3)cc(C(=O)N3CCC[C@H]3CN3CCCC3)c2c1 [Compound 337]
> 10 µM | Cc1noc(C)c1-c1ccc2nc(NCc3ccc(C(F)(F)F)cc3)cc(C(=O)N3CCC[C@H]3CN3CCCC3)c2c1 [Compound 338]
> 10 µM | N#Cc1cncc(-c2ccc3nc(NCc4ccc(C(F)(F)F)cc4)cc(C(=O)N4CCC[C@H]4CN4CCCC4)c3c2)c1 [Compound 339]
> 10 µM | Cn1ccnc1-c1ccc2nc(NCc3ccc(C(F)(F)F)cc3)cc(C(=O)N3CCC[C@H]3CN3CCCC3)c2c1 [Compound 340]
> 10 µM | O=C(c1cc(NCc2ccc(C(F)(F)F)cc2)nc2ccc(-c3nc(Cl)ns3)cc12)N1CCC[C@H]1CN1CCCC1 [Compound 341]
> 10 µM | Cn1cncc1-c1ccc2nc(NCc3ccc(C(F)(F)F)cc3)cc(C(=O)N3CCC[C@H]3CN3CCCC3)c2c1 [Compound 342]
> 10 µM | N#Cc1ncccc1-c1ccc2nc(NCc3ccc(C(F)(F)F)cc3)cc(C(=O)N3CCC[C@H]3CN3CCCC3)c2c1 [Compound 343]
< 1 µM | O=C(c1cc(NCc2ccc(C(F)(F)F)cc2)nc2ccc(-c3ccc(F)c(F)c3)cc12)N1CCC[C@H]1CN1CCCC1 [Compound 344]
> 10 µM | O=C(c1cc(NCc2ccc(C(F)(F)F)cc2)nc2ccc(-c3ccc(C(F)(F)F)cc3)cc12)N1CCC[C@H]1CN1CCCC1 [Compound 345]
> 10 µM | O=C(c1cc(NCc2ccc(C(F)(F)F)cc2)nc2ccc(-c3cccc(Cl)c3Cl)cc12)N1CCC[C@H]1CN1CCCC1 [Compound 346]
> 10 µM | O=C(c1cc(NCc2ccc(C(F)(F)F)cc2)nc2ccc(-c3ccccc3Cl)cc12)N1CCC[C@H]1CN1CCCC1 [Compound 347]
< 1 µM | O=C(c1cc(NCc2ccc(C(F)(F)F)cc2)nc2ccc(-c3ccc4c(c3)OC(F)(F)O4)cc12)N1CCC[C@H]1CN1CCCC1 [Compound 348]
< 1 µM | O=C(c1cc(NCc2ccc(C(F)(F)F)cc2)nc2ccc(-c3ccc4occc4c3)cc12)N1CCC[C@H]1CN1CCCC1 [Compound 349]
> 10 µM | O=C(c1cc(NCc2ccc(C(F)(F)F)cc2)nc2ccc(-c3ccc(SC(F)(F)F)cc3)cc12)N1CCC[C@H]1CN1CCCC1 [Compound 350]

Same assay, conditions: ZAP-70 DELFIA, numeric value; read-out: Activity (IC50 in vitro)

IC50 | SMILES
1.78 µM | Cc1ccc(-c2ccc3nc(NCc4ccc(C(F)(F)F)cc4)cc(C(=O)N4CCC[C@H]4CN4CCCC4)c3c2)s1 [Compound 301]
